Among the data in patent US20160046618A1, “Cyclopropyl Fused Thiazin-2-Amine Compounds as Beta-Secretase Inhibitors and Methods of Use” (AMGEN INC., priority 2014, published 2016) are IC50 values, retold here.

Usually IC50 stands for the point on the concentration scale where inhibition reaches its midpoint.

A value given as a limit tells only on which side of the number the result lay.

The target in one test is human recombinant BACE1 (Homo sapiens (Human), UniProt P56817). Briefly: In vitro enzymatic BACE1 FRET assay. Type of test: biochemical. Particulars: read-out: IC50 IP (μM) BACE1 enzyme. An outline of the steps: (§1)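 Reactions were initiated by adding 50 nM of a peptide carrying fluorophore and quencher on opposite sides of the cleavage site and ran for one hour. Tris buffer then brought the pH to neutrality, ending the reaction, and fluorescence was measured (488 nm excitation, 590 nm emission).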
human recombinant BACE1, sequence (P56817 46-501): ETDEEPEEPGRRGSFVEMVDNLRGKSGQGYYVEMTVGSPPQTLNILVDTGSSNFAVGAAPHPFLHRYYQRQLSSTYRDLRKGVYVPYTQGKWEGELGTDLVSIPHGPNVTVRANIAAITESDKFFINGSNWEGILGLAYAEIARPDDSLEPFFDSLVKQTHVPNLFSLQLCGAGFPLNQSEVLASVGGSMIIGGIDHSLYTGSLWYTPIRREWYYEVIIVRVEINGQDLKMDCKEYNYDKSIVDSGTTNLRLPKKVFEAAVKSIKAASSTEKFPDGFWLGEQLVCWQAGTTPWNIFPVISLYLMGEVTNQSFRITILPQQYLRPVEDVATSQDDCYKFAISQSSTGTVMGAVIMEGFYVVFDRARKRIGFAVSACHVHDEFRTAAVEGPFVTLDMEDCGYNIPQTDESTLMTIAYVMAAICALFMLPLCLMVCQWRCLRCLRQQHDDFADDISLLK

A further test addresses human recombinant BACE2 (Homo sapiens (Human), UniProt Q9Y5Z0). Briefly: In vitro enzymatic BACE2 FRET assay. It counts as biochemical. Particulars: read-out: IC50 IP (μM) BACE2 enzyme. An outline of the steps:
as §1

Test [1] relates to Aβ40 in conditioned medium of cells stably expressing Amyloid Precursor Protein (APP). Nature of the test: In vitro BACE-1 cell-based assay (Aβ40 sandwich ELISA). Particulars: read-out: IC50 IP (μM) BACE1 cell. In a few lines: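 Aβ40 in supernatants measured by time-resolved fluorescence sandwich ELISA, with pAb40 as capture and biotin-6E10 as detector antibody, each incubated at 4 °C.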
On the technique in general: ELISA stands for enzyme-linked immunosorbent assay.

The target of a further test is Recombinant Cat D (Homo sapiens (Human), UniProt P07339). Briefly: In vitro enzymatic Cathepsin D (Cat D) FRET assay. It counts as biochemical. Particulars: read-out: IC50 IP (μM) CatD. In a few lines:
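CHO-expressed enzyme; buffer 0.05 M citrate pH 3.5, 5 mM CHAPS, 10% DMSO final. Start with FRET substrate 20 nM, 1 h incubation, Tris stop (pH to neutral), fluorescence ex 500 nm/em 580 nm.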

human recombinant BACE2, sequence (Q9Y5Z0 63-518): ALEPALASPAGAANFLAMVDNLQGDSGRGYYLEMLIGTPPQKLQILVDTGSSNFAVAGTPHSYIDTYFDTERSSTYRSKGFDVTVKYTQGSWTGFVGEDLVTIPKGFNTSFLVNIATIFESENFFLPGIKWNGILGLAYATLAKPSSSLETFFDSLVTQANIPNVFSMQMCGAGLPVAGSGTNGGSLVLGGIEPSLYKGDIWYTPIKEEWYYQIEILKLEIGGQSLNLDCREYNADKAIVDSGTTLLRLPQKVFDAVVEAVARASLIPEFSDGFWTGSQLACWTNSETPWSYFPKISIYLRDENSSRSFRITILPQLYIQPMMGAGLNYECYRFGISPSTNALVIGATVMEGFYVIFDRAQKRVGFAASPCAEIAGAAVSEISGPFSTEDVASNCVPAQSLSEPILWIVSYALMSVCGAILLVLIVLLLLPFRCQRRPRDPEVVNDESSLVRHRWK
Recombinant Cat D, sequence (P07339 65-412): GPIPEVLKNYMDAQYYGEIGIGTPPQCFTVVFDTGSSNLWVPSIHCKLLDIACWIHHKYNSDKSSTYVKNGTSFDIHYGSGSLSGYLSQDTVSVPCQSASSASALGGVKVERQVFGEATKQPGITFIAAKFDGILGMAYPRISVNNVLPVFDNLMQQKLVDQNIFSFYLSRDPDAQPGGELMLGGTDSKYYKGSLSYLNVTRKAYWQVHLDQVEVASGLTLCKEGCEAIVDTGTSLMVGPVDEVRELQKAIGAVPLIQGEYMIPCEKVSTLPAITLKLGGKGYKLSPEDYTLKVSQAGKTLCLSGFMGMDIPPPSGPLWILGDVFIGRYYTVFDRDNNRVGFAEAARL

Take `C[C@]1(c2cc(Nc3nccc4nc(OCc5ncco5)cnc34)ccc2F)N=C(N)S[C@@]2(C(F)F)C[C@@H]12` [Example 817, N-(3-((1S,5S,6S)-3-amino-1-(difluoromethyl)-5-methyl-2-thia-4-azabicyclo[4.1.0]hept-3-en-5-yl)-4-fluorophenyl)-2-(1,3-oxazol-2-ylmethoxy)pyrido[3,4-b]pyrazin-5-amine]: the concentration for half-maximal inhibition (IC50) on human recombinant BACE1 was found to be 0.000706 µM; on human recombinant BACE2 it was 0.0319 µM; in test [1], 0.00171 µM; at Recombinant Cat D, 124 µM.

Consider `C[C@]1(c2cc(NC(=O)c3ccc(Cl)cn3)ccc2F)N=C(N)S[C@@]2(C(F)F)C[C@@H]12` [Example 818, N-(3-((1S,5S,6S)-3-amino-1-(difluoromethyl)-5-methyl-2-thia-4-azabicyclo[4.1.0]hept-3-en-5-yl)-4-fluorophenyl)-5-chloro-2-pyridinecarboxamide], for which the IC50 at human recombinant BACE1 was 0.000587 µM; at human recombinant BACE2, less than 0.00203 µM; in test [1], 0.00164 µM; at Recombinant Cat D, 152 µM.

Consider `C#CCOc1cnc2c(Nc3ccc(F)c([C@@]4(C)N=C(N)S[C@@]5(C(F)F)C[C@@H]45)c3)ncnc2c1` [Example 819, N-(3-((1S,5S,6S)-3-amino-1-(difluoromethyl)-5-methyl-2-thia-4-azabicyclo[4.1.0]hept-3-en-5-yl)-4-fluorophenyl)-7-(2-propyn-1-yloxy)pyrido[3,2-d]pyrimidin-4-amine], for which the half-maximal inhibitory concentration (IC50) on human recombinant BACE1 was 0.000821 µM; on human recombinant BACE2, 0.0412 µM; in test [1], 0.00175 µM; at Recombinant Cat D it was 34.2 µM.

As for `C#CCOc1cnc(C(=O)Nc2ccc(F)c([C@@]3(C)N=C(N)S[C@@]4(C(F)F)C[C@@H]34)c2)cn1` [Example 820, N-(3-((1S,5S,6S)-3-amino-1-(difluoromethyl)-5-methyl-2-thia-4-azabicyclo[4.1.0]hept-3-en-5-yl)-4-fluorophenyl)-5-(2-propyn-1-yloxy)-2-pyrazinecarboxamide], the half-maximal inhibitory concentration (IC50) came out at 0.000319 µM on human recombinant BACE1, 0.0162 µM at human recombinant BACE2, 0.000495 µM in test [1] and 60.4 µM at Recombinant Cat D.

As to `C[C@]1(c2cc(NC(=O)c3ccc(Cl)cn3)ccc2F)N=C(N)S[C@@]2(CF)C[C@H]21` [Example 821, N-(3-((1S,5S,6S)-3-amino-1-(fluoromethyl)-5-methyl-2-thia-4-azabicyclo[4.1.0]hept-3-en-5-yl)-4-fluorophenyl)-5-chloro-2-pyridinecarboxamide], the IC50 is 0.00298 µM at human recombinant BACE1, less than 0.00203 µM at human recombinant BACE2, 0.00428 µM in test [1] and 1170 µM at Recombinant Cat D.

For the compound `C#CCOc1cnc2c(Nc3ccc(F)c([C@@]4(C)N=C(N)S[C@@]5(CF)C[C@H]54)c3)ncnc2c1` [Example 824, N-(3-((1S,5S,6S)-3-amino-1-(fluoromethyl)-5-methyl-2-thia-4-azabicyclo[4.1.0]hept-3-en-5-yl)-4-fluorophenyl)-7-(2-propyn-1-yloxy)pyrido[3,2-d]pyrimidin-4-amine], the IC50 at human recombinant BACE1 was found to be 0.00299 µM; on human recombinant BACE2, 0.0842 µM; in test [1] it was 0.00128 µM; on Recombinant Cat D, 1840 µM.

As for `C[C@]1(c2cc(Nc3nccc4nc(OCc5ncco5)cnc34)ccc2F)N=C(N)S[C@@]2(CF)C[C@H]21` [Example 825, N-(3-((1S,5S,6S)-3-amino-1-(fluoromethyl)-5-methyl-2-thia-4-azabicyclo[4.1.0]hept-3-en-5-yl)-4-fluorophenyl)-2-(1,3-oxazol-2-ylmethoxy)pyrido[3,4-b]pyrazin-5-amine], the IC50 on human recombinant BACE1 was 0.00357 µM; at human recombinant BACE2, 0.0542 µM; in test [1], 0.00111 µM; at Recombinant Cat D, 526 µM.

Regarding `C[C@]1(c2cc(NC(=O)c3cnc(OCC(F)(F)F)cn3)ccc2F)N=C(N)S[C@@]2(CF)C[C@H]21` [Example 826, N-(3-((1S,5S,6S)-3-amino-1-(fluoromethyl)-5-methyl-2-thia-4-azabicyclo[4.1.0]hept-3-en-5-yl)-4-fluorophenyl)-5-(2,2,2-trifluoroethoxy)-2-pyrazinecarboxamide], the IC50 was 0.00174 µM at human recombinant BACE1, 0.0778 µM on human recombinant BACE2, 0.00331 µM in test [1] and 395 µM at Recombinant Cat D.

As for `C#CCOc1cnc(C(=O)Nc2ccc(F)c([C@@]3(C)N=C(N)S[C@@]4(CF)C[C@H]43)c2)c(C)n1` [Example 829, N-(3-((1S,5S,6S)-3-amino-1-(fluoromethyl)-5-methyl-2-thia-4-azabicyclo[4.1.0]hept-3-en-5-yl)-4-fluorophenyl)-3-methyl-5-(2-propyn-1-yloxy)-2-pyrazinecarboxamide], the IC50 on human recombinant BACE1 was 0.000776 µM; at human recombinant BACE2, 0.00801 µM; in test [1], 0.0019 µM; at Recombinant Cat D, 354 µM.

On to `C#CCOc1cnc(C(=O)Nc2ccc(F)c([C@@]3(C)N=C(N)S[C@@]4(C(F)F)C[C@@H]34)c2)c(C)n1` [Example 830, N-(3-((1S,5S,6S)-3-amino-1-(difluoromethyl)-5-methyl-2-thia-4-azabicyclo[4.1.0]hept-3-en-5-yl)-4-fluorophenyl)-3-methyl-5-(2-propyn-1-yloxy)-2-pyrazinecarboxamide], for which the IC50 is 0.000566 µM at human recombinant BACE1, 0.0101 µM on human recombinant BACE2, 0.00221 µM in test [1] and 121 µM at Recombinant Cat D.

For `C#CCOc1cnc(C(=O)Nc2ccc(F)c([C@@]3(C)N=C(N)S[C@@]4(COC)C[C@H]43)c2)c(C)n1` [Example 832, N-(3-((1S,5S,6S)-3-amino-1-(methoxymethyl)-5-methyl-2-thia-4-azabicyclo[4.1.0]hept-3-en-5-yl)-4-fluorophenyl)-3-methyl-5-(2-propyn-1-yloxy)-2-pyrazinecarboxamide], the half-inhibitory concentration (IC50) at human recombinant BACE1 came out at 0.00299 µM; on human recombinant BACE2, 0.013 µM; in test [1], 0.00213 µM; at Recombinant Cat D, 778 µM.

Regarding `COC[C@]12C[C@H]1[C@@](C)(c1cc(NC(=O)c3ccc(Cl)cn3)ccc1F)N=C(N)S2` [Example 833, N-(3-((1S,5S,6S)-3-amino-1-(methoxymethyl)-5-methyl-2-thia-4-azabicyclo[4.1.0]hept-3-en-5-yl)-4-fluorophenyl)-5-chloro-2-pyridinecarboxamide], the IC50 is 0.0041 µM at human recombinant BACE1, 0.0061 µM on human recombinant BACE2, 0.0137 µM in test [1] and greater than 400 µM on Recombinant Cat D.

Consider `COC[C@]12C[C@H]1[C@@](C)(c1cc(NC(=O)c3ncc(OCc4ncco4)nc3C)ccc1F)N=C(N)S2` [Example 835, N-(3-((1S,5S,6S)-3-amino-1-(methoxymethyl)-5-methyl-2-thia-4-azabicyclo[4.1.0]hept-3-en-5-yl)-4-fluorophenyl)-3-methyl-5-(1,3-oxazol-2-ylmethoxy)-2-pyrazinecarboxamide], for which the 50% inhibitory concentration (IC50) was 0.00305 µM at human recombinant BACE1, 0.0249 µM at human recombinant BACE2, 0.00392 µM in test [1] and greater than 400 µM on Recombinant Cat D.

With `Cc1nc(OCc2ncco2)cnc1C(=O)Nc1ccc(F)c([C@@]2(C)N=C(N)S[C@@]3(C(F)F)C[C@@H]23)c1` [Example 836, N-(3-((1S,5S,6S)-3-amino-1-(difluoromethyl)-5-methyl-2-thia-4-azabicyclo[4.1.0]hept-3-en-5-yl)-4-fluorophenyl)-3-methyl-5-(1,3-oxazol-2-ylmethoxy)-2-pyrazinecarboxamide], the concentration for half-maximal inhibition (IC50) was 0.00209 µM at human recombinant BACE1, 0.0362 µM on human recombinant BACE2, 0.00389 µM in test [1] and greater than 400 µM on Recombinant Cat D.
